Consider 22 compounds from US10246429B2, “Vinyl fluoride cyclopropyl fused thiazin-2-amine compounds as beta-secretase inhibitors and methods of use” (AMGEN INC., priority 2015, dated 2019).

One assay addresses BACE2 (Homo sapiens (Human), UniProt Q9Y5Z0). Briefly: In vitro enzymatic BACE2 FRET assay. Format: biochemical. The settings on record: read-out: IC50 IP (μM) BACE2 Enzyme.
Assay [1] addresses T1, BACE1 (Homo sapiens (Human), UniProt P56817). Put plainly: BACE1 cell assay. Format: cell-based.
Target sequence in this assay (P56817 46-501, species assumed): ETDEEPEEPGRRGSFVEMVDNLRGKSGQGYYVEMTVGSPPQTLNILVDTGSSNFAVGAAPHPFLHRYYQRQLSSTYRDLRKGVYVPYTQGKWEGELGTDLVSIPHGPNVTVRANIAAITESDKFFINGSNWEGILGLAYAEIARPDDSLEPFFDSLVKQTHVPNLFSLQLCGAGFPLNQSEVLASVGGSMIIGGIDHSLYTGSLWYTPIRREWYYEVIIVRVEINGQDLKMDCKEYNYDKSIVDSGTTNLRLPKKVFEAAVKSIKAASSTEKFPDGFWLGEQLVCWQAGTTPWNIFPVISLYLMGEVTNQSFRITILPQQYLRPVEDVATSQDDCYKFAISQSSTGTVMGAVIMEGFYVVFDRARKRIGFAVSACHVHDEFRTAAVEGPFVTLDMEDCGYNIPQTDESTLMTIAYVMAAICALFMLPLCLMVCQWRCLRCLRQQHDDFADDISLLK
For a further assay, the target named is Cathepsin D (CatD) (Homo sapiens (Human), UniProt P07339). Briefly: CatD assay. It counts as biochemical. The following applies: read-out: IC50 IP (μM) CatD.
In assay [2] the target is T1, BACE1. Briefly: In vitro enzymatic BACE1 FRET assay. Format: biochemical. The settings on record: read-out: IC50 IP (μM) BACE1 Enzyme.
Target sequence in this assay (P56817 46-501): as the sequence (P56817 46-501, species assumed) above
Text: (§1) In Vitro Enzymatic BACE1 and BACE2 FRET (Fluorescence Resonance Energy Transfer) Assays (Enzyme Assay Data in Table 1)
Where [3] appears, read: read-out: IC50 IP (μM) BACE1 Cell.

Chain of BACE2 (Q9Y5Z0 63-518): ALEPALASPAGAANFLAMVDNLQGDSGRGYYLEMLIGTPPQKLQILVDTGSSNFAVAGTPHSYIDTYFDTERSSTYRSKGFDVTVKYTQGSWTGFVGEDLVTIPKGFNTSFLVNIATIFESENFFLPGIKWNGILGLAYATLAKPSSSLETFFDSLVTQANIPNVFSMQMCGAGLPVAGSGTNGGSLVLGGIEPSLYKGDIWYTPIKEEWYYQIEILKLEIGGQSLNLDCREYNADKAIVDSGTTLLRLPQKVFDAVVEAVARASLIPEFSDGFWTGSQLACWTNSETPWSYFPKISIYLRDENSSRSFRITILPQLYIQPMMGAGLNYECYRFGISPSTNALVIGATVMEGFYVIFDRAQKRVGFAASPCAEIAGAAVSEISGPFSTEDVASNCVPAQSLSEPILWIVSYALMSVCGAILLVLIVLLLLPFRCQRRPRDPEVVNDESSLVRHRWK
Chain of Cathepsin D (CatD) (P07339 65-412, species assumed): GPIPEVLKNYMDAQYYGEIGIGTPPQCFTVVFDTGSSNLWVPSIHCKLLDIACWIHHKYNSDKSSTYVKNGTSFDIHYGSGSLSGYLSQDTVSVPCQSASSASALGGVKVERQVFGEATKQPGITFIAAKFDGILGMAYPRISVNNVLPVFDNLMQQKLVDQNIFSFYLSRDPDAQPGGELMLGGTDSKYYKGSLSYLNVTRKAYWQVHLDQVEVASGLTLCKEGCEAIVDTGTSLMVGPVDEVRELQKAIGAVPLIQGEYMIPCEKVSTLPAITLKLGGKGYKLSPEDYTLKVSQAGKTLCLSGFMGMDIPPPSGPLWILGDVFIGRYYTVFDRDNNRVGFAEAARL
Text for BACE2: as §1

As for `C[C@]1(c2cc(/C=C(\F)c3ccc(Cl)cn3)ccc2F)N=C(N)S[C@@]2(C(N)=O)C[C@H]21` [Example 242, (1S,5S,6S)-3-amino-5-(5-((Z)-2-(5-chloropyridin-2-yl)-2-fluorovinyl)-2-fluorophenyl)-5-methyl-2-thia-4-azabicyclo[4.1.0]hept-3-ene-1-carboxamide], the IC50 worked out at 0.034 µM at BACE2, 0.0181 µM against BACE1 [1], 205 µM on Cathepsin D (CatD) and 0.0164 µM at BACE1 [2].

With `C[C@]1(c2cc(/C=C(\F)c3ccc(C#N)cn3)ccc2F)N=C(N)S[C@@]2(C(N)=O)C[C@H]21` [Example 243, (1S,5S,6S)-3-amino-5-(5-((Z)-2-(5-cyanopyridin-2-yl)-2-fluorovinyl)-2-fluorophenyl)-5-methyl-2-thia-4-azabicyclo[4.1.0]hept-3-ene-1-carboxamide], the IC50 at BACE2 was 0.043 µM; against BACE1 [1] it was 0.0022 µM; at Cathepsin D (CatD), 412 µM; at BACE1 [2] it was 0.003 µM.

In the case of `CC#CCOc1cnc(/C(F)=C/c2ccc(F)c([C@@]3(C)N=C(N)S[C@@]4(C#N)C[C@H]43)c2)cn1` [Example 244, (1S,5S,6S)-3-amino-5-(5-((Z)-2-(5-(but-2-yn-1-yloxy)pyrazin-2-yl)-2-fluorovinyl)-2-fluorophenyl)-5-methyl-2-thia-4-azabicyclo[4.1.0]hept-3-ene-1-carbonitrile], the 50% inhibitory concentration (IC50) on BACE2 was 0.055 µM; at BACE1 [1] (setting [3]), 0.0147 µM; at Cathepsin D (CatD), 150 µM; on BACE1 [2], 0.0004 µM.

As for `C[C@]1(c2cc(/C=C(\F)c3ccc(C#N)cn3)ccc2F)N=C(N)S[C@@]2(C#N)C[C@H]21` [Example 245, (1S,5S,6S)-3-amino-5-(5-((Z)-2-(5-cyanopyridin-2-yl)-2-fluorovinyl)-2-fluorophenyl)-5-methyl-2-thia-4-azabicyclo[4.1.0]hept-3-ene-1-carbonitrile], the IC50 at BACE2 came out at 0.057 µM; on BACE1 [1] (setting [3]), 0.0341 µM; at Cathepsin D (CatD), 400 µM; on BACE1 [2], 0.005 µM.

Turning to `CN(C)C(=O)[C@]12C[C@H]1[C@@](C)(c1cc(/C=C(\F)c3cn4cc(C#N)ccc4n3)ccc1F)N=C(N)S2` [Example 246, (1S,5S,6S)-3-amino-5-(5-((Z)-2-(6-cyanoimidazo[1,2-a]pyridin-2-yl)-2-fluorovinyl)-2-fluorophenyl)-N,N,5-trimethyl-2-thia-4-azabicyclo[4.1.0]hept-3-ene-1-carboxamide], the concentration for half-maximal inhibition (IC50) stood at 0.39 µM on BACE2, 0.05 µM at BACE1 [1] (setting [3]), 53.1 µM at Cathepsin D (CatD) and 0.171 µM on BACE1 [2].

As for `COC(=O)[C@]12C[C@H]1[C@@](C)(c1cc(/C=C(\F)c3ccc(Cl)cn3)cc(F)c1F)N=C(N)S2` [Example 248, (1S,5S,6S)-methyl 3-amino-5-(5-((Z)-2-(5-chloropyridin-2-yl)-2-fluorovinyl)-2,3-difluorophenyl)-5-methyl-2-thia-4-azabicyclo[4.1.0]hept-3-ene-1-carboxylate], the IC50 was 0.083 µM at BACE2, 1.59 µM against BACE1 [1], 200 µM at Cathepsin D (CatD) and 0.0625 µM on BACE1 [2].

As for `CN(C)C(=O)[C@]12C[C@H]1[C@@](C)(c1cc(/C=C(\F)c3ncc4c(n3)OCCO4)ccc1F)N=C(N)S2` [Example 250, (1S,5S,6S)-3-amino-5-(5-((Z)-2-(6,7-dihydro-[1,4]dioxino[2,3-d]pyrimidin-2-yl)-2-fluorovinyl)-2-fluorophenyl)-N,N,5-trimethyl-2-thia-4-azabicyclo[4.1.0]hept-3-ene-1-carboxamide], the IC50 on BACE2 came out at 0.076 µM; at BACE1 [1] (setting [3]), 0.017 µM; at Cathepsin D (CatD), 368 µM; at BACE1 [2] it was 0.029 µM.

For the compound `C[C@]1(c2cc(/C=C(\F)c3ccc(C#N)cn3)ccc2F)N=C(N)S[C@]2(CO)[C@H]1C2(F)F` [Example 251, 6-((Z)-2-(3-((1S,5S,6R)-3-amino-7,7-difluoro-1-(hydroxymethyl)-5-methyl-2-thia-4-azabicyclo[4.1.0]hept-3-en-5-yl)-4-fluorophenyl)-1-fluorovinyl)nicotinonitrile], the IC50 on BACE2 was found to be 0.159 µM; on BACE1 [1] (setting [3]), 0.062 µM; at Cathepsin D (CatD), 360 µM; at BACE1 [2], 0.012 µM.

Consider `C#CCOc1cnc(/C(F)=C/c2ccc(F)c([C@@]3(C)N=C(N)S[C@]4(CO)[C@H]3C4(F)F)c2)cn1` [Example 253, ((1S,5S,6R)-3-amino-7,7-difluoro-5-(2-fluoro-5-((Z)-2-fluoro-2-(5-(prop-2-yn-1-yloxy)pyrazin-2-yl)vinyl)phenyl)-5-methyl-2-thia-4-azabicyclo[4.1.0]hept-3-en-1-yl)methanol], for which the IC50 at BACE2 came to 0.385 µM; on BACE1 [1] (setting [3]) it was 0.0636 µM; on Cathepsin D (CatD) it was 147 µM; at BACE1 [2], 0.0054 µM.

As for `C[C@]1(c2cc(/C=C(\F)c3ccc(Cl)cn3)ccc2F)N=C(N)S[C@]2(CO)[C@H]1C2(F)F` [Example 255, ((1S,5S,6R)-3-amino-5-(5-((Z)-2-(5-chloropyridin-2-yl)-2-fluorovinyl)-2-fluorophenyl)-7,7-difluoro-5-methyl-2-thia-4-azabicyclo[4.1.0]hept-3-en-1-yl)methanol], the IC50 at BACE2 is 0.056 µM; against BACE1 [1], 0.505 µM; on Cathepsin D (CatD), 235 µM; on BACE1 [2] it was 0.0477 µM.

Turning to `C#C[C@H](C)Oc1cnc(/C(F)=C/c2ccc(F)c([C@@]3(C)N=C(N)S[C@@]4(COC)C[C@H]43)c2)cn1` [Example 264], the 50% inhibitory concentration (IC50) on BACE2 turned out to be 0.917 µM; at BACE1 [1] (setting [3]), 0.026 µM; on Cathepsin D (CatD), 363 µM; at BACE1 [2], 0.003 µM.

Take `COC[C@]12C[C@H]1[C@@](C)(c1cc(/C=C(\F)c3cnc(OCC(F)F)cn3)ccc1F)N=C(N)S2` [Example 266]: the IC50 at BACE2 came out at 1.58 µM; at BACE1 [1] (setting [3]) it was 1.51 µM; at Cathepsin D (CatD) it was 409 µM; on BACE1 [2], 0.591 µM.

As to `COC[C@]12C[C@H]1[C@@](C)(c1cc(/C=C(\F)c3cnc(OCC(F)(F)F)cn3)ccc1F)N=C(N)S2` [Example 267], the IC50 on BACE2 was 1.73 µM; at BACE1 [1] (setting [3]), 0.559 µM; at Cathepsin D (CatD), 209 µM; on BACE1 [2], 0.112 µM.

On to `COC[C@]12C[C@H]1[C@@](C)(c1cc(/C=C(\F)c3cnc(OCCF)cn3)ccc1F)N=C(N)S2` [Example 269], for which the half-inhibitory concentration (IC50) came out at 1.14 µM on BACE2, 1.66 µM at BACE1 [1] (setting [3]), 329 µM on Cathepsin D (CatD) and 0.839 µM at BACE1 [2].

Turning to `COC[C@]12C[C@H]1[C@@](C)(c1cc(/C=C(\F)c3cnc(OCC4CC4)cn3)ccc1F)N=C(N)S2` [Example 270], the 50% inhibitory concentration (IC50) at BACE2 was 1.22 µM; at BACE1 [1] (setting [3]), 5.12 µM; on Cathepsin D (CatD) it was 211 µM; on BACE1 [2], 0.659 µM.

`COC[C@]12C[C@H]1[C@@](C)(c1cc(/C=C(\F)c3cnc(OCC4COC4)cn3)ccc1F)N=C(N)S2` [Example 272]: the IC50 was 4.02 µM on BACE2, 2.53 µM at BACE1 [1] (setting [3]), 864 µM on Cathepsin D (CatD) and 3.04 µM on BACE1 [2].

As to `COC[C@]12C[C@H]1[C@@](C)(c1cc(/C=C(\F)c3cnc(OCC(C)C)cn3)ccc1F)N=C(N)S2` [Example 274], the 50% inhibitory concentration (IC50) on BACE2 came out at 2.19 µM; on BACE1 [1] (setting [3]) it was 4.26 µM; at Cathepsin D (CatD) it was 181 µM; on BACE1 [2], 1.9 µM.

For `COC[C@]12C[C@H]1[C@@](C)(c1cc(/C=C(\F)c3cnc(OCc4cc(C)on4)cn3)ccc1F)N=C(N)S2` [Example 275], the IC50 on BACE2 was 1.2 µM; at BACE1 [1] (setting [3]), 2 µM; on Cathepsin D (CatD), 144 µM; at BACE1 [2], 0.248 µM.

Take `C#CCOc1cnc(/C(F)=C/c2ccc(F)c([C@@]3(C)N=C(N)S[C@@]4(C(=O)N5[C@H]6COC[C@@H]5COC6)C[C@H]43)c2)cn1` [Example 279, ((1S,5S,6S)-3-amino-5-(2-fluoro-5-((Z)-2-fluoro-2-(5-(prop-2-yn-1-yloxy)pyrazin-2-yl)vinyl)phenyl)-5-methyl-2-thia-4-azabicyclo[4.1.0]hept-3-en-1-yl)((1R,5R)-3,7-dioxa-9-azabicyclo[3.3.1]nonan-9-yl)methanone]: the IC50 at BACE2 amounted to 0.176 µM; on BACE1 [1] (setting [3]), 0.001 µM; on Cathepsin D (CatD), 42 µM; at BACE1 [2], 0.0012 µM.

In the case of `C#CCOc1cnc(/C(F)=C/c2cnc(F)c([C@@]3(C)N=C(N)S[C@@]4(C(=O)N5CC[C@H](F)C5)C[C@H]43)c2)cn1` [Example 280, ((1S,5S,6S)-3-amino-5-(2-fluoro-5-((Z)-2-fluoro-2-(5-(prop-2-yn-1-yloxy)pyrazin-2-yl)vinyl)pyridin-3-yl)-5-methyl-2-thia-4-azabicyclo[4.1.0]hept-3-en-1-yl)((S)-3-fluoropyrrolidin-1-yl)methanone], the IC50 stood at 0.119 µM on BACE2, 0.0016 µM at BACE1 [1] (setting [3]), 115 µM on Cathepsin D (CatD) and 0.0013 µM on BACE1 [2].

As for `C[C@]1(c2cc(/C=C(\F)c3ccc(C#N)cn3)cnc2F)N=C(N)S[C@@]2(C(=O)NCC(F)F)C[C@H]21` [Example 281, (1S,5S,6S)-3-amino-5-(5-((Z)-2-(5-cyanopyridin-2-yl)-2-fluorovinyl)-2-fluoropyridin-3-yl)-N-(2,2-difluoroethyl)-5-methyl-2-thia-4-azabicyclo[4.1.0]hept-3-ene-1-carboxamide], the half-maximal inhibitory concentration (IC50) on BACE2 worked out at 0.164 µM; on BACE1 [1] it was 0.0542 µM; on Cathepsin D (CatD) it was 269 µM; on BACE1 [2], 0.0214 µM.

Regarding `C#CCOc1cnc(/C(F)=C/c2cnc(F)c([C@@]3(C)N=C(N)S[C@@]4(C(=O)N(C)C)C[C@H]43)c2)cn1` [Example 287, (1S,5S,6S)-3-amino-5-(2-fluoro-5-((Z)-2-fluoro-2-(5-(prop-2-yn-1-yloxy)pyrazin-2-yl)vinyl)pyridin-3-yl)-N,N,5-trimethyl-2-thia-4-azabicyclo[4.1.0]hept-3-ene-1-carboxamide], the half-maximal inhibitory concentration (IC50) on BACE2 came out at 0.04 µM; on BACE1 [1] (setting [3]), 0.0022 µM; at Cathepsin D (CatD) it was 206 µM; at BACE1 [2], 0.0019 µM.
